{"source": "paper PMC5761471", "about": "(Journal of Pharmaceutical Analysis, 2014)", "key": {"[1]": {"experiment": "Stability of standard stock solutions", "assay_type": "physicochemical", "details": "stock solution in methanol, 25 °C"}, "[2]": {"experiment": "Bioequivalence study, oral 400 mg raltegravir tablets", "assay_type": "in vivo, human", "details": "healthy Indian subjects"}, "[3]": {"details": "cited from earlier work"}, "[4]": {"experiment": "Stability of raltegravir in spiked human plasma and processed extracts", "assay_type": "in vitro ADME", "details": "n=6"}, "[5]": {"details": "stated, not tested in this paper; cited from earlier work"}, "[6]": {"details": "Bench-top, room temperature (25 °C), 8 h, nominal 6.0 ng/mL"}, "[7]": {"details": "Bench-top, room temperature (25 °C), 8 h, nominal 5000 ng/mL"}, "[8]": {"details": "Dry extract in deep freezer at −20 °C for 65 h, nominal 6.0 ng/mL"}, "[9]": {"details": "Dry extract in deep freezer at −20 °C for 65 h, nominal 5000 ng/mL"}, "[10]": {"details": "Freeze-thaw after 5th cycle at −20 °C, nominal 6.0 ng/mL"}, "[11]": {"details": "Freeze-thaw after 5th cycle at −20 °C, nominal 5000 ng/mL"}, "[12]": {"details": "Freeze-thaw after 5th cycle at −70 °C, nominal 6.0 ng/mL"}, "[13]": {"details": "Freeze-thaw after 5th cycle at −70 °C, nominal 5000 ng/mL"}, "[14]": {"details": "Long-term at −20 °C for 42 days, nominal 6.0 ng/mL"}, "[15]": {"details": "Long-term at −20 °C for 42 days, nominal 5000 ng/mL"}, "[16]": {"details": "Long-term at −70 °C for 42 days, nominal 6.0 ng/mL"}, "[17]": {"details": "Long-term at −70 °C for 42 days, nominal 5000 ng/mL"}, "[18]": {"details": "Wet extract (autosampler) at 4 °C for 65 h, nominal 6.0 ng/mL"}, "[19]": {"details": "Wet extract (autosampler) at 4 °C for 65 h, nominal 5000 ng/mL"}, "[20]": {"details": "Wet extract at 25 °C for 4 h, nominal 6.0 ng/mL"}, "[21]": {"details": "Wet extract at 25 °C for 4 h, nominal 5000 ng/mL"}}}
{"smiles": "Cc1nnc(C(=O)NC(C)(C)c2nc(C(=O)NCc3ccc(F)cc3)c(O)c(=O)n2C)o1", "note": "[raltegravir]", "values": [{"measurement": "short-term stability of stock solution (stable up to)", "setting": "[1]", "result": "up to 8 h"}, {"measurement": "time required to reach peak plasma concentration", "setting": "[2]; single 400 mg oral dose, fasting", "result": "~ 2 h"}, {"measurement": "increase of area under the plasma-time curve (AUC) with a high fat meal", "setting": "[3]", "result": "about 19%"}, {"measurement": "Change", "setting": "[4]; [6]", "result": 7.17, "unit": "%"}, {"measurement": "Mean stability sample ±SD", "setting": "[4]; [6]", "result": "6.43 ± 0.15", "unit": "ng/mL"}, {"measurement": "Change", "setting": "[4]; [7]", "result": "−5.81", "unit": "%"}, {"measurement": "Mean stability sample ±SD", "setting": "[4]; [7]", "result": "4709.67 ± 72.69", "unit": "ng/mL"}, {"measurement": "Change", "setting": "[4]; [8]", "result": 3.83, "unit": "%"}, {"measurement": "Mean stability sample ±SD", "setting": "[4]; [8]", "result": "6.23 ± 0.25", "unit": "ng/mL"}, {"measurement": "Change", "setting": "[4]; [9]", "result": "−2.52", "unit": "%"}, {"measurement": "Mean stability sample ±SD", "setting": "[4]; [9]", "result": "4874.00 ± 183.04", "unit": "ng/mL"}, {"measurement": "Change", "setting": "[4]; [10]", "result": 2.83, "unit": "%"}, {"measurement": "Mean stability sample ±SD", "setting": "[4]; [10]", "result": "6.17 ± 0.22", "unit": "ng/mL"}, {"measurement": "Change", "setting": "[4]; [11]", "result": "−4.54", "unit": "%"}, {"measurement": "Mean stability sample ±SD", "setting": "[4]; [11]", "result": "4773.50 ± 106.40", "unit": "ng/mL"}, {"measurement": "Change", "setting": "[4]; [12]", "result": 2.83, "unit": "%"}, {"measurement": "Mean stability sample ±SD", "setting": "[4]; [12]", "result": "6.17 ± 0.24", "unit": "ng/mL"}, {"measurement": "Change", "setting": "[4]; [13]", "result": "−3.90", "unit": "%"}, {"measurement": "Mean stability sample ±SD", "setting": "[4]; [13]", "result": "4804.83 ± 218.23", "unit": "ng/mL"}, {"measurement": "Change", "setting": "[4]; [14]", "result": "−1.00", "unit": "%"}, {"measurement": "Mean stability sample ±SD", "setting": "[4]; [14]", "result": "5.94 ± 0.26", "unit": "ng/mL"}, {"measurement": "Change", "setting": "[4]; [15]", "result": "−3.12", "unit": "%"}, {"measurement": "Mean stability sample ±SD", "setting": "[4]; [15]", "result": "4844.00 ± 247.40", "unit": "ng/mL"}, {"measurement": "Change", "setting": "[4]; [16]", "result": 3.33, "unit": "%"}, {"measurement": "Mean stability sample ±SD", "setting": "[4]; [16]", "result": "6.20 ± 0.23", "unit": "ng/mL"}, {"measurement": "Change", "setting": "[4]; [17]", "result": "−2.77", "unit": "%"}, {"measurement": "Mean stability sample ±SD", "setting": "[4]; [17]", "result": "4861.50 ± 315.59", "unit": "ng/mL"}, {"measurement": "Change", "setting": "[4]; [18]", "result": 4.00, "unit": "%"}, {"measurement": "Mean stability sample ±SD", "setting": "[4]; [18]", "result": "6.24 ± 0.28", "unit": "ng/mL"}, {"measurement": "Change", "setting": "[4]; [19]", "result": "−3.24", "unit": "%"}, {"measurement": "Mean stability sample ±SD", "setting": "[4]; [19]", "result": "4838.17 ± 209.68", "unit": "ng/mL"}, {"measurement": "Change", "setting": "[4]; [20]", "result": 3.83, "unit": "%"}, {"measurement": "Mean stability sample ±SD", "setting": "[4]; [20]", "result": "6.23 ± 0.25", "unit": "ng/mL"}, {"measurement": "Change", "setting": "[4]; [21]", "result": "−0.81", "unit": "%"}, {"measurement": "Mean stability sample ±SD", "setting": "[4]; [21]", "result": "4959.33 ± 287.84", "unit": "ng/mL"}]}
{"smiles": "Cc1nnc(C(=O)NC(C)(C)c2nc(C(=O)NCc3ccc(F)cc3)c(O[C@@H]3O[C@H](C(=O)O)[C@@H](O)[C@H](O)[C@H]3O)c(=O)n2C)o1", "note": "[RAL-Glu, raltegravir glucuronide]", "values": [{"measurement": "pharmacological activity", "setting": "[5]", "result": "pharmacologically inactive"}, {"measurement": "presence of circulating metabolite in plasma of subject samples", "setting": "[2]; up to 4 h after oral administration of the drug", "result": "complete absence"}]}
